Assay results published in US9200005B2, “Inhibitor compounds of phosphodiesterase type 10A” (AbbVie Deutschland GmbH & Co. KG, priority 2013, dated 2015).

How the values were obtained:
[1] = Determination of the microsomal half-life / microsomal clearance, rat liver microsomes; type: in vitro ADME; settings: 0.5 μM test substance, 0.25 mg of microsomal protein/mL, NADPH, 37° C.
Summary of the method: (§1)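 Compound (0.5 μM) was preincubated 5 min at 37 °C with rat or human liver microsomes (0.25 mg protein/mL) in 0.05 M phosphate pH 7.4, and NADPH (1 mg/mL) was then added. Samples taken at 0-30 min and quenched with acetonitrile were analysed by MS/MS. T½ was derived assuming first-order decay, and clearance […] was calculated from T½ and protein content.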

[2] = target: PDE10A (UniProt Q9Y233); assay: Measurement of PDE activity (HTRF cAMP kit, recombinant PDE10A); type: biochemical, human, rat and mouse; settings: substrate 20 nM, 60 minutes at 29° C.
Procedure: a) Measurement of PDE Activity
The recombinant PDE proteins are used in in vitro enzymatic reaction for measurement of PDE activity. These recombinant proteins, including PDE10A (human, rat and mouse PDE10) and isoforms of PDEs 1, 3, 4, and 5, were purchased from commercial vendor BPS Bioscience. The enzymatic activity of PDEs was determined by cAMP measurement kit from CisBio (IBA) using HTRF technology.
The PDE enzymatic reaction was carried out in assay buffer (20 mM Tris-HCl pH 7.5, 10 mM MgCl2, 0.1% bovine serum albumin) containing enzyme and substrate. […] The substrate cyclic nucleotide (cAMP or cGMP) concentration used in the assay was 20 nM for PDE10, and 100 nM for other PDEs. The inhibitory effect of compound was determined by incubating various concentration of inhibitor in the enzymatic assay. […] Next, the compound at varying concentration was mixed with PDE enzyme. The reaction was initiated by addition of cyclic nucleotide substrate, and incubated for 60 minutes at 29° C. The reaction was stopped by addition of lysis buffer from the assay kit. The cAMP-d2 and anti-cAMP cryptate in the lysis buffer detected the level of cAMP left from the PDE hydrolysis reaction. […] Thus, IC50 value of inhibitor can be obtained by plotting inhibitor concentration against PDE activity at that concentration.

[3] = Determination of the microsomal half-life / microsomal clearance, human liver microsomes; type: in vitro ADME; settings: 0.5 μM test substance, 0.25 mg of microsomal protein/mL, NADPH, 37° C.
Summary of the method: as §1

SMILES | Rat mCl [1] | IC50 [2] [nM] | Human mCl [3] | Rat mCl ([1]; bis(trifluoroacetate))
Cn1nc(-c2ccc(C#N)cc2)c2scc(-c3ccncc3)c2c1=O [Example 95, 4-[5-methyl-4-oxo-3-(pyridin-4-yl)-4,5-dihydrothieno[2,3-d]pyridazin-7-yl]benzonitrile] | ++ (++: <100 μl min^−1 mg^−1) | < 100 | ++ (++: <100 μl min^−1 mg^−1) | 
Cn1nc(-c2ccc3ncoc3c2)c2scc(-c3ccncc3)c2c1=O [Example 97, 7-(1,3-benzoxazol-6-yl)-5-methyl-3-(pyridin-4-yl)thieno[2,3-d]pyridazin-4(5H)-one] | ++ (++: <100 μl min^−1 mg^−1) | < 100 | ++ (++: <100 μl min^−1 mg^−1) | 
CC(C)Oc1cccc(COc2nn(C)c(=O)c3c(-c4ccncc4)csc23)c1 [Example 73, 5-methyl-7-{[3-(propan-2-yloxy)benzyl]oxy}-3-(pyridin-4-yl)thieno[2,3-d]pyridazin-4(5H)-one] | ++ (++: <100 μl min^−1 mg^−1) | 200 to 500 | ++ (++: <100 μl min^−1 mg^−1) | 
COCCn1cc(-c2nn(C)c(=O)c3c(-c4ccncc4)csc23)cn1.O=C(O)C(F)(F)F.O=C(O)C(F)(F)F [Example 99, 7-[1-(2-methoxyethyl)-1H-pyrazol-4-yl]-5-methyl-3-(pyridin-4-yl)thieno[2,3-d]pyridazin-4(5H)-one bis(trifluoroacetate)] | ++ (++: <100 μl min^−1 mg^−1) | < 100 | ++ (++: <100 μl min^−1 mg^−1) | 
CCn1nc(-c2ccncc2)c2scc(-c3cncnc3)c2c1=O [Example 145, 5-ethyl-7-(pyridin-4-yl)-3-(pyrimidin-5-yl)thieno[2,3-d]pyridazin-4(5H)-one] | ++ (++: <100 μl min^−1 mg^−1) | < 100 | ++ (++: <100 μl min^−1 mg^−1) | 
Cn1nc(Oc2ccccc2)c2scc(-c3ccncc3)c2c1=O [Example 81, 5-methyl-7-phenoxy-3-(pyridin-4-yl)thieno[2,3-d]pyridazin-4(5H)-one] | ++ (++: <100 μl min^−1 mg^−1) | 200 to 500 | ++ (++: <100 μl min^−1 mg^−1) | 
Cn1nc(-c2ccncc2)c2scc(-c3cccnc3)c2c1=O.O=C(O)C(F)(F)F [Example 14, 5-methyl-3-(pyridin-3-yl)-7-(pyridin-4-yl)thieno[2,3-d]pyridazin-4(5H)-one bis(trifluoroacetate)] |  | 100 to 200 | ++ (++: <100 μl min^−1 mg^−1) | ++ (++: <100 μl min^−1 mg^−1)
COc1ccc(Oc2nn(C)c(=O)c3c(-c4ccncc4)csc23)cc1 [Example 86, 7-(4-methoxyphenoxy)-5-methyl-3-(pyridin-4-yl)thieno[2,3-d]pyridazin-4(5H)-one] | + (+: 100-220 μl min^−1 mg^−1) | 200 to 500 | ++ (++: <100 μl min^−1 mg^−1) | 
Cn1nc(Oc2ccccc2C#N)c2scc(-c3ccncc3)c2c1=O.O=C(O)C(F)(F)F [Example 83, 2-{[5-methyl-4-oxo-3-(pyridin-4-yl)-4,5-dihydrothieno[2,3-d]pyridazin-7-yl]oxy}benzonitrile trifluoroacetate] | ++ (++: <100 μl min^−1 mg^−1) | 100 to 200 | + (+: 100-220 μl min^−1 mg^−1) | 
COc1ccccc1Oc1nn(C)c(=O)c2c(-c3ccncc3)csc12.O=C(O)C(F)(F)F [Example 84, 7-(2-methoxyphenoxy)-5-methyl-3-(pyridin-4-yl)thieno[2,3-d]pyridazin-4(5H)-one trifluoroacetate] | ∘ (∘ not avialable or >220 μl min^−1 mg^−1) | 100 to 200 | ++ (++: <100 μl min^−1 mg^−1) | 
COc1ccc(Oc2nn(C)c(=O)c3c(-c4ccncc4)csc23)cc1OC [Example 91, 7-(3,4-dimethoxyphenoxy)-5-methyl-3-(pyridin-4-yl)thieno[2,3-d]pyridazin-4(5H)-one] | ++ (++: <100 μl min^−1 mg^−1) | < 100 | ++ (++: <100 μl min^−1 mg^−1) | 
Cn1nc(-c2ccncc2)c2scc(NC3COC3)c2c1=O [Example 2, 5-methyl-3-(oxetan-3-ylamino)-7-(pyridin-4-yl)thieno[2,3-d]pyridazin-4(5H)-one] | + (+: 100-220 μl min^−1 mg^−1) | 200 to 500 | ++ (++: <100 μl min^−1 mg^−1) | 
Cn1nc(-c2ccc3c(c2)OCO3)c2scc(-c3ccncc3)c2c1=O [Example 124, 7-(1,3-benzodioxol-5-yl)-5-methyl-3-(pyridin-4-yl)thieno[2,3-d]pyridazin-4(5H)-one] | + (+: 100-220 μl min^−1 mg^−1) | 200 to 500 | + (+: 100-220 μl min^−1 mg^−1) | 
COc1cc(COc2nn(C)c(=O)c3c(-c4ccncc4)csc23)cc(OC)c1 [Example 75, 7-[(3,5-dimethoxybenzyl)oxy]-5-methyl-3-(pyridin-4-yl)thieno[2,3-d]pyridazin-4(5H)-one] | ++ (++: <100 μl min^−1 mg^−1) | < 100 | + (+: 100-220 μl min^−1 mg^−1) | 
Cn1nc(OCc2cccnc2)c2scc(-c3ccncc3)c2c1=O [Example 147, 5-methyl-3-(pyridin-4-yl)-7-(pyridin-3-ylmethoxy)thieno[2,3-d]pyridazin-4(5H)-one] | + (+: 100-220 μl min^−1 mg^−1) | < 100 | + (+: 100-220 μl min^−1 mg^−1) | 
Cn1nc(-c2cccc(C#N)c2)c2scc(-c3ccncc3)c2c1=O [Example 94, 3-[5-methyl-4-oxo-3-(pyridin-4-yl)-4,5-dihydrothieno[2,3-d]pyridazin-7-yl]benzonitrile] | ++ (++: <100 μl min^−1 mg^−1) | 100 to 200 | ++ (++: <100 μl min^−1 mg^−1) | 
Cn1nc(OCc2nc3ccccc3n2C)c2scc(-c3ccncc3)c2c1=O [Example 70, 5-methyl-7-[(1-methyl-1H-benzimidazol-2-yl)methoxy]-3-(pyridin-4-yl)thieno[2,3-d]pyridazin-4(5H)-one] | + (+: 100-220 μl min^−1 mg^−1) | < 100 | + (+: 100-220 μl min^−1 mg^−1) | 
COc1cncc(Oc2nn(C)c(=O)c3c(-c4ccncc4)csc23)c1.O=C(O)C(F)(F)F.O=C(O)C(F)(F)F [Example 88, 7-[(5-methoxypyridin-3-yl)oxy]-5-methyl-3-(pyridin-4-yl)thieno[2,3-d]pyridazin-4(5H)-one bis(trifluoroacetate)] | ++ (++: <100 μl min^−1 mg^−1) | < 100 | ++ (++: <100 μl min^−1 mg^−1) | 
Cn1nc(-c2ccncc2)c2scc(-c3ccncc3)c2c1=O [Example 130, 5-methyl-3,7-di(pyridin-4-yl)thieno[2,3-d]pyridazin-4(5H)-one] | ++ (++: <100 μl min^−1 mg^−1) | 100 to 200 | ++ (++: <100 μl min^−1 mg^−1) | 
COc1cccc(COc2nn(C)c(=O)c3c(-c4ccncc4)csc23)c1 [Example 61, 7-[(3-methoxybenzyl)oxy]-5-methyl-3-(pyridin-4-yl)thieno[2,3-d]pyridazin-4(5H)-one] | + (+: 100-220 μl min^−1 mg^−1) | 100 to 200 | ++ (++: <100 μl min^−1 mg^−1) | 
Cc1ncc(-c2csc3c(-c4ccncc4)nn(CC(F)(F)F)c(=O)c23)cn1 [Example 128, 3-(2-methylpyrimidin-5-yl)-7-(pyridin-4-yl)-5-(2,2,2-trifluoroethyl)thieno[2,3-d]pyridazin-4(5H)-one] | ++ (++: <100 μl min^−1 mg^−1) | 200 to 500 | ++ (++: <100 μl min^−1 mg^−1) | 
Cn1nc(OCc2cccc(OC(F)F)c2)c2scc(-c3ccncc3)c2c1=O [Example 76, 7-{[3-(difluoromethoxy)benzyl]oxy}-5-methyl-3-(pyridin-4-yl)thieno[2,3-d]pyridazin-4(5H)-one] | ++ (++: <100 μl min^−1 mg^−1) | < 100 | ++ (++: <100 μl min^−1 mg^−1) | 
Cn1nc(OCc2cccc3ccoc23)c2scc(-c3ccncc3)c2c1=O [Example 64, 7-(1-benzofuran-7-ylmethoxy)-5-methyl-3-(pyridin-4-yl)thieno[2,3-d]pyridazin-4(5H)-one] | ++ (++: <100 μl min^−1 mg^−1) | 100 to 200 | ++ (++: <100 μl min^−1 mg^−1) | 
Cn1nc(Oc2cccnc2)c2scc(-c3ccncc3)c2c1=O [Example 82, 5-methyl-3-(pyridin-4-yl)-7-(pyridin-3-yloxy)thieno[2,3-d]pyridazin-4(5H)-one] | ++ (++: <100 μl min^−1 mg^−1) | 200 to 500 | ++ (++: <100 μl min^−1 mg^−1) | 
Cn1nc(OCc2ccccn2)c2scc(-c3ccncc3)c2c1=O [Example 55, 5-methyl-3-(pyridin-4-yl)-7-(pyridin-2-ylmethoxy)thieno[2,3-d]pyridazin-4(5H)-one] | + (+: 100-220 μl min^−1 mg^−1) | 100 to 200 | ++ (++: <100 μl min^−1 mg^−1) | 
